According to patent US9370522B2, “Heterocyclic compounds for the inhibition of PASK” (BioEnergenix, LLC, priority 2009, dated 2016):

molecular target: T1, hPASK Kinase Domain (Homo sapiens, UniProt Q96RG2); test: Biochemical Assay for hPASK Activity (Kinase-Glo Luminescent Kinase Assay), kinase domain; settings: Table 1, second part (Examples 33-59)
T1 construct: made in house; host or cells: insect cells
Description: The assay for purified hPASK activity utilizes the Kinase-Glo Luminescent Kinase Assay (Promega), which quantifies the amount of ATP remaining in solution following kinase reaction. The assay is carried out in a 96-well plate format and is performed by adding a volume of Kinase-Glo Reagent (Promega, catalog #V3771) equal to the volume of solution in the well of a completed kinase reaction. Kinase-Glo reagent contains Luciferase and its substrate. After addition to a kinase reaction it allows to measure luminescence. The amount of ATP left in solution at the time of Kinase-Glo Plus addition is directly proportional to the luminescence that is measured in each well, and inversely correlated with kinase activity.
Purified hPASK from insect cells (0.02 μg) is added to a 50 μL reaction mix containing 40 mM Hepes (pH 7.0), 100 mM KCl, 5 mM MgCl2, 1 mM DTT and 1 ug of MBP protein. Inhibitory compounds are then added and the mixture is incubated for 10 min at 25° C. before adding 5 μL of ATP (at desired concentration). The reaction is allowed to proceed at 25° C. for 1 hour before adding 50 μL of Kinase-Glo reagent. The luminescence is measured as soon as 10 minutes after Kinase-Glo reagent is added.

T1 sequence (Q96RG2 999-1251 limits assumed): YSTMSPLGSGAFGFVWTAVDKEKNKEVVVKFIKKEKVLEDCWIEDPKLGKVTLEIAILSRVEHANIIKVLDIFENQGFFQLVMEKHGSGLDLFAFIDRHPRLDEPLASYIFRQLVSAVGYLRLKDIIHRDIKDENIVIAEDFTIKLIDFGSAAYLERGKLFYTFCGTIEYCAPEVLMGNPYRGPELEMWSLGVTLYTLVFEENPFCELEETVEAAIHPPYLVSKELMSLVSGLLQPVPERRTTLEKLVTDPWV

| IC50 [µM] | Compound |
| --- | --- |
| ≤ 10 | O=C(O)c1cccc(-c2nc3cc(C(=O)O)ccc3nc2-c2ccccc2)c1 [Example 50, 3-(3-Carboxyphenyl)-2-phenylquinoxaline-6-carboxylic acid] |
| ≤ 10 | CN(c1ccc(-c2nc3cc(C(=O)O)ccc3nc2-c2ccccc2)cc1)S(C)(=O)=O [Example 51, 3-(4-(N-Methylmethylsulfonamido)phenyl)-2-phenylquinoxaline-6-carboxylic acid] |
| ≤ 10 | COc1ccc(-c2nc3ccc(S(N)(=O)=O)cc3nc2-c2ccc(OC)cc2)cc1 [Example 53, 2,3-Bis(4-methoxyphenyl)quinoxaline-6-sulfonamide] |
| ≥ 10 | CNS(=O)(=O)c1ccc2nc(-c3ccc(OC)cc3)c(-c3ccc(OC)cc3)nc2c1 [Example 54, 2,3-Bis(4-methoxyphenyl)-N-methylquinoxaline-6-sulfonamide] |
| ≤ 10 | COc1ccc(-c2nc3ccc(S(=O)(=O)N4CCOCC4)cc3nc2-c2ccc(OC)cc2)cc1 [Example 55, 2,3-Bis(4-methoxyphenyl)-6-(morpholinosulfonyl)quinoxaline] |

molecular target: T2, PASK (UniProt #Q96RG2; human recombinant N-terminal GST tagged construct, residues 879-1323) (Homo sapiens, UniProt Q96RG2); test: 33P-ATP radiometric PASK kinase assay (P81 phosphocellulose, scintillation counting); type: biochemical; settings: Table 2, Myelin Basic Protein 20 μM, 120 min room temperature, average of all trials, read-out: IC50 Kinase Domain
T2 construct: N-terminal GST tagged construct, residues 879-1323; GST (N); made in house; host or cells: insect cells
T2 sequence (Q96RG2 879-1323, stated change not applied): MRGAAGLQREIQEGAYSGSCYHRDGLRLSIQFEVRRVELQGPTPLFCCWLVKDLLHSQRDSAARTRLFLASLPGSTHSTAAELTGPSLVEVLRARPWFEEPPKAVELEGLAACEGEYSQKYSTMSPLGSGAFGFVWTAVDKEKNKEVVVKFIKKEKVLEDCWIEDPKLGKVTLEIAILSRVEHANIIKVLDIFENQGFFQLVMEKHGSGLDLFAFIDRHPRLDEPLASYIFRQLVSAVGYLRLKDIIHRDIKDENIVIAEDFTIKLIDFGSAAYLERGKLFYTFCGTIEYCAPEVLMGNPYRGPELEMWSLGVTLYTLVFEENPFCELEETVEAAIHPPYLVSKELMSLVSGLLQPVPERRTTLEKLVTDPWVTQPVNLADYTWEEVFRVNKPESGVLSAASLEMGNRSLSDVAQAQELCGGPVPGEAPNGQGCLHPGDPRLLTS
Description: Purified PASK (UniProt #Q96RG2; human recombinant N-terminal GST tagged construct, residues 879-1323) from insect cells (final concentration 5 nM) is added to freshly prepared Base Reaction Buffer containing 20 mM Hepes (pH 7.5), 10 mM MgCl2, 1 mM EGTA, 0.02% Brij35, 0.02 mg/ml BSA, 0.1 mM Na3VO4, 2 mM DTT, 1% DMSO and Myelin Basic Protein (20 μM final). Test compounds in DMSO are then added and the mixture, followed by delivery of ^33P-ATP (specific activity 0.01 μCi/μl final) to initiate the reaction. The kinase reaction is incubated for 120 min at room temperature. The entire reaction mixture is washed through onto a P81 Phosphocellulose paper and washed three times for 10 minutes in 75 mM phosphoric acid and once in methanol prior to drying and scintillation counting. When the assay was repeated for a given compound, the activity data is based on the average of all trials.

| IC50 [µM] | Compound |
| --- | --- |
| ≤ 10 | O=C(O)c1ccc2nc(-c3ccco3)c(-c3ccccc3)nc2c1 [Example 12, 2-(Furan-2-yl)-3-phenylquinoxaline-6-carboxylic acid] |
| ≤ 10 | O=C(O)c1ccc2nc(-c3ccccc3)c(-c3ccc(C(F)(F)F)cc3)nc2c1 [Example 13, 2-Phenyl-3-(4-(trifluoromethyl)phenyl)quinoxaline-6-carboxylic acid] |
| ≥ 10 | Cc1nc2cc(C(=O)O)ccc2nc1-c1ccccc1 [Example 14, 3-Methyl-2-phenylquinoxaline-6-carboxylic acid] |
| ≤ 10 | Cc1ccc(-c2nc3cc(C(=O)O)ccc3nc2-c2ccccc2)cc1 [Example 15, 2-Phenyl-3-p-tolylquinoxaline-6-carboxylic acid] |
| ≤ 10 | CCOc1ccc(-c2nc3cc(C(=O)O)ccc3nc2-c2ccccc2)cc1 [Example 16, 3-(4-Ethoxyphenyl)-2-phenylquinoxaline-6-carboxylic acid] |
| ≤ 10 | COc1ccc(-c2nc3cc(C(=O)O)ccc3nc2-c2ccccc2)cc1OC [Example 17, 3-(3,4-Dimethoxyphenyl)-2-phenylquinoxaline-6-carboxylic acid] |
| ≤ 10 | O=C(O)c1ccc2nc(-c3ccccc3)c(-c3ccc4ccccc4c3)nc2c1 [Example 18, 3-(Naphthalen-2-yl)-2-phenylquinoxaline-6-carboxylic acid] |
| ≤ 10 | O=C(O)c1ccc2nc(-c3ccccc3)c(-c3cccc4ccccc34)nc2c1 [Example 19, 3-(Naphthalene-1-yl)-2-phenylquinoxaline-6-carboxylic acid] |
| ≤ 10 | O=C(O)c1ccc2nc(-c3ccccc3)c(-c3ccc4c(c3)OCO4)nc2c1 [Example 20, 3-(Benzo[d][1,3]dioxol-5-yl)-2-phenylquinoxaline-6-carboxylic acid] |
| ≤ 10 | O=C(O)c1ccc2nc(-c3ccccc3)c(-c3ccncc3)nc2c1 [Example 21, 2-Phenyl-3-(pyridin-4-yl)quinoxaline-6-carboxylic acid] |
| ≤ 10 | N#Cc1ccc(-c2nc3cc(C(=O)O)ccc3nc2-c2ccccc2)cc1 [Example 22, 3-(4-Cyanophenyl)-2-phenylquinoxaline-6-carboxylic acid] |
| ≤ 10 | COc1ccc(-c2nc3cc(C(=O)O)ccc3nc2-c2ccccc2)cc1 [Example 23, 3-(4-Methoxyphenyl)-2-phenylquinoxaline-6-carboxylic acid] |
| ≥ 10 | O=C(O)c1ccc2nc(-c3ccccc3)c(-c3ccccc3-c3ccccc3)nc2c1 [Example 24, 3-(Biphenyl-2-yl)-2-phenylquinoxaline-6-carboxylic acid] |
| ≤ 10 | O=C(O)c1cc2nc(-c3ccc(F)cc3)c(-c3ccc(F)cc3)nc2cc1O [Example 25, 2,3-Bis(4-fluorophenyl)-7-hydroxyquinoxaline-6-carboxylic acid] |
| ≥ 10 | O=C(O)c1cc2nc(-c3ccc(Cl)cc3)c(-c3ccc(Cl)cc3)nc2cc1O [Example 26, 2,3-Bis(4-chlorophenyl)-7-hydroxyquinoxaline-6-carboxylic acid] |
| ≤ 10 | COc1ccc(-c2nc3cc(O)c(C(=O)O)cc3nc2-c2ccc(OC)cc2)cc1 [Example 27, 7-Hydroxy-2,3-bis(4-methoxyphenyl)quinoxaline-6-carboxylic acid] |
| ≤ 10 | O=C(O)c1cc2nc(-c3ccc(O)cc3)c(-c3ccc(O)cc3)nc2cc1O [Example 28, 7-Hydroxy-2,3-bis(4-hydroxyphenyl)quinoxaline-6-carboxylic acid] |
| ≥ 10 | O=C(O)c1cc2nc(-c3cccc(O)c3)c(-c3cccc(O)c3)nc2cc1O [Example 29, 7-Hydroxy-2,3-bis(3-hydroxyphenyl)quinoxaline-6-carboxylic acid] |

| IC50 [µM] | Compound |
| --- | --- |
| ≤ 10 | O=C(O)c1ccc2nc(-c3ccccc3)c(-c3ccc(Cl)cc3)nc2c1 [Example 30, 3-(4-Chlorophenyl)-2-phenylquinoxaline-6-carboxylic acid] |
| ≤ 10 | O=C(O)c1ccc2nc(-c3ccccc3)c(-c3ccc(Br)cc3)nc2c1 [Example 31, 3-(4-Bromophenyl)-2-phenylquinoxaline-6-carboxylic acid] |
| ≤ 10 | CCc1ccc(-c2nc3cc(C(=O)O)ccc3nc2-c2ccccc2)cc1 [Example 32, 3-(4-Ethylphenyl)-2-phenylquinoxaline-6-carboxylic acid] |
| ≤ 10 | O=C(O)c1ccc2nc(-c3ccccc3)c(-c3ccc(CO)cc3)nc2c1 [Example 34, 3-(4-(Hydroxymethyl)phenyl)-2-phenylquinoxaline-6-carboxylic acid] |
| ≥ 10 | O=C(O)c1ccc(-c2nc3cc(C(=O)O)ccc3nc2-c2ccccc2)cc1 [Example 35, 3-(4-Carboxyphenyl)-2-phenylquinoxaline-6-carboxylic acid] |
| ≤ 10 | O=C(O)c1ccc2nc(-c3ccccc3)c(-c3ccc(OC(F)(F)F)cc3)nc2c1 [Example 36, 2-Phenyl-3-(4-(trifluoromethoxy)phenyl)quinoxaline-6-carboxylic acid] |
| ≤ 10 | O=C(O)c1ccc2nc(-c3ccccc3)c(-c3cccc(OC(F)(F)F)c3)nc2c1 [Example 37, 2-Phenyl-3-(3-(trifluoromethoxy)phenyl)quinoxaline-6-carboxylic acid] |
| ≤ 10 | O=C(O)c1ccc2nc(-c3ccccc3)c(-c3cccc(F)c3)nc2c1 [Example 38, 3-(3-Fluorophenyl)-2-phenylquinoxaline-6-carboxylic acid] |
| ≤ 10 | Cc1ccccc1-c1nc2cc(C(=O)O)ccc2nc1-c1ccccc1 [Example 39, 2-Phenyl-3-o-tolylquinoxaline-6-carboxylic acid] |
| ≤ 10 | Cc1cccc(-c2nc3cc(C(=O)O)ccc3nc2-c2ccccc2)c1 [Example 40, 2-Phenyl-3-m-tolylquinoxaline-6-carboxylic acid] |
| ≤ 10 | O=C(O)c1ccc2nc(-c3ccccc3)c(-c3ccc([N+](=O)[O-])cc3)nc2c1 [Example 41, 3-(4-Nitrophenyl)-2-phenylquinoxaline-6-carboxylic acid] |
| ≤ 10 | O=C(O)c1ccc2nc(-c3ccccc3)c(-c3ccoc3)nc2c1 [Example 42, 3-(Furan-3-yl)-2-phenylquinoxaline-6-carboxylic acid] |
| ≤ 10 | O=C(O)c1ccc2nc(-c3ccccc3)c(-c3ccsc3)nc2c1 [Example 43, 2-Phenyl-3-(thiophen-3-yl)quinoxaline-6-carboxylic acid] |
| ≤ 10 | O=C(O)c1ccc2nc(-c3ccccc3)c(-c3ccc(O)cc3)nc2c1 [Example 44, 3-(4-Hydroxyphenyl)-2-phenylquinoxaline-6-carboxylic acid] |
| ≤ 10 | COc1ccc(-c2nc3cc(C(=O)O)ccc3nc2-c2ccccc2)c(OC)c1 [Example 45, 3-(2,4-Dimethoxyphenyl)-2-phenylquinoxaline-6-carboxylic acid] |
| ≤ 10 | O=C(O)c1ccc2nc(-c3ccccc3)c(-c3cccc(O)c3)nc2c1 [Example 46, 3-(3-Hydroxyphenyl)-2-phenylquinoxaline-6-carboxylic acid] |
| ≤ 10 | O=C(O)c1ccc2nc(-c3ccccc3)c(-c3ccc(-c4ccccc4)cc3)nc2c1 [Example 47, 2-Phenyl-3-(4-phenyl-phenyl)quinoxaline-6-carboxylic acid] |
| ≥ 10 | CCc1nc2cc(C(=O)O)ccc2nc1-c1ccccc1 [Example 48, 3-Ethyl-2-phenylquinoxaline-6-carboxylic acid] |
